Test results as given in patent US5620955A, “Bombesin receptor antagonists and uses thereof” (Peptide Technologies Corporation, priority 1993, dated 1997).
Like-named read-outs stand apart in the source and are kept apart here. Non-standard residues stand in square brackets, D forms with d. Residues, ends and D or L forms follow the SMILES beside them. *: point of attachment. BrAc = O=C(CBr)*

How the values were obtained:
NCI-H345 [1] = assay: Clonagenic assay, colony formation of NCI-H345; assay type: cell-based, human; set-up: key to Growth: significantly reduced (R); had no effect (--) on th; conditions: for reversal of colony inhibition by BBN (in words): 1 μM antagonist, 10 nM BBN added, both cell lines; for colony formation (in words): NCI-H345, 1 μM; for colony formation: NCI-H345, antagonist 1 μM plus BBN 10 nM; for Growth: compound 1 μM, clonal growth of a human tumor cell line
Procedure: The effect of 1 to 1000 nM concentration of peptides on growth of NCI-H345 colonies stimulated by 10 nM BBN was measured in the agarose cloning system (Mahoud et al., Cancer Res. 51:1798 (1991); Staley et al., Peptides 12:145-149 (1991)). […] On the day of the assay, cells were harvested, centrifuged and suspended in the buffer. The agarose cloning system consisted of 3 ml of 0.5% agarose in SIT medium with 5% fetal bovine serum in six well plates. To a top layer, consisting of 3 ml HITES medium in 0.3% agarose, the peptides at two times concentration and 6×10^4 single viable cells, were added. For each peptide concentration, triplicate wells were plated. After two weeks, 1 ml of 0.1% p-iodo-nitrotetrazolium violet was added, and after 16 hours at 37° C., the plates were screened for colony formation; the number of colonies larger than […] in diameter were counted using a Bausch and Lomb Omnicon image analysis system.

NCI-H720 = assay: Clonagenic assay, colony formation of NCI-H720; assay type: cell-based, human; conditions: for colony formation: NCI-H720; for colony formation (in words): second SCLC line (NCI-H270 in the text, NCI-H720 in Table 4), 1 μM
Procedure: On the day of the assay, cells were harvested, centrifuged and suspended in the buffer. The agarose cloning system consisted of 3 ml of 0.5% agarose in SIT medium with 5% fetal bovine serum in six well plates. To a top layer, consisting of 3 ml HITES medium in 0.3% agarose, the peptides at two times concentration and 6×10^4 single viable cells, were added. For each peptide concentration, triplicate wells were plated. After two weeks, 1 ml of 0.1% p-iodo-nitrotetrazolium violet was added, and after 16 hours at 37° C., the plates were screened for colony formation; the number of colonies larger than […] in diameter were counted using a Bausch and Lomb Omnicon image analysis system.

BBN receptor [2] = target: T1, BBN receptor (Homo sapiens, UniProt P30550); assay: Cytosolic Ca++ assay in SCLC cell line NCI-H345; assay type: cell-based; set-up: key: antagonized (A); had no effect (--) on the ability of 10 nM BBN to; conditions: compound 10 μM; 10 nM BBN elevation of cytosolic Ca++
T1 construct: endogenous in cells; host or cells: NCI-H345 (human SCLC)
T1 sequence (P30550 whole entry): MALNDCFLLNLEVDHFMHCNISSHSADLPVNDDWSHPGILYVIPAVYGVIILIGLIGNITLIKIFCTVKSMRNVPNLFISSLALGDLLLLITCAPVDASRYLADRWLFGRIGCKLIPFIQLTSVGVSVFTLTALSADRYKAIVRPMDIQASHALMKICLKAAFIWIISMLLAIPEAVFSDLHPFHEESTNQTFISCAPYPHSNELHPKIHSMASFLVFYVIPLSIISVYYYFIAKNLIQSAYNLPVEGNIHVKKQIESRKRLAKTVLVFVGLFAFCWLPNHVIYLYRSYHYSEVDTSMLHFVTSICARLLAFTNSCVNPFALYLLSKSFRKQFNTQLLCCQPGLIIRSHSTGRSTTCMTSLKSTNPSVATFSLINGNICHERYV
Procedure: SCLC cell line NCI-H345 was cultured for two days in medium containing 10^-8 M hydrocortisone, 5 μg/ml bovine insulin, 10 μg/ml human transferrin, 10^-8 M β-estradiol and 3×10^-8 M Na2 SeO3. The cells were harvested and washed, resuspended in medium containing 20 mM HEPES, pH 7.4, and loaded with 5 μM Fura 2 AM (Calbiochem) for 30 minutes. The cells were centrifuged at 150×g for 10 minutes to remove extracellular dye and resuspended and placed in a spectrofluorometer cell equipped with stirring and 37° C. heating. The emission was read at 510 nm with 340 excitation (Moody et al., Biochem. Biophys. Res. Commun. 147:189 (1987)). The response of compounds at 5 μM was measured initially as a screen and compared to that of 10 nM BBN. The response of varying concentrations of peptide (nM to μM) in the presence of 10 nM BBN was determined.

BBN receptor [3] = target: T1, BBN receptor; assay: Inhibition of [125I]Tyr4-BBN binding to SCLC NCI-H345 membranes; conditions: for inhibition of BBN binding to SCLC membranes (in words): radiolabelled Tyr4-BBN
Procedure: (§1) Acinar cells from rat pancreas bind BBN and secrete amylase when treated with BBN. The ability of potential antagonists to bind to rat pancreatic acinar cells was examined by determining the ability of the compounds to inhibit the binding of radiolabelled BBN. […] Finally, antagonist activity of the compounds was determined by measuring the ability of compounds to prevent the release of amylase from cells in response to BBN. […] This cell line was also used to evaluate biological activities of potential antagonists derived from the structures of BBN and GRP. The binding of synthetic compounds to cellular membranes prepared from NCI-H345 was determined. The ability of potential antagonists to block the BBN-stimulated increase in cytosolic levels of Ca^++ was determined. Compounds showing inhibition were further tested to determine the effect on growth of two human SCLC cell lines in culture.
Potential antagonists were also evaluated for their ability to inhibit the binding of radiolabelled Tyr^4 -BBN to SCLC membranes and for their effects on BBN signal transduction in SCLC cells.

NCI-H345 [4] = assay: Clonagenic assay, colony formation of NCI-H345; assay type: cell-based, human; conditions: antagonist 1 μM alone, mean ± S.E. of 3
BBN receptor [5] = target: T2, BBN receptor (Rattus norvegicus, UniProt P52500); assay: Stimulation of amylase release from rat pancreatic acinar cells by the compound alone (agonist test); assay type: cell-based
T2 sequence (P52500 whole entry): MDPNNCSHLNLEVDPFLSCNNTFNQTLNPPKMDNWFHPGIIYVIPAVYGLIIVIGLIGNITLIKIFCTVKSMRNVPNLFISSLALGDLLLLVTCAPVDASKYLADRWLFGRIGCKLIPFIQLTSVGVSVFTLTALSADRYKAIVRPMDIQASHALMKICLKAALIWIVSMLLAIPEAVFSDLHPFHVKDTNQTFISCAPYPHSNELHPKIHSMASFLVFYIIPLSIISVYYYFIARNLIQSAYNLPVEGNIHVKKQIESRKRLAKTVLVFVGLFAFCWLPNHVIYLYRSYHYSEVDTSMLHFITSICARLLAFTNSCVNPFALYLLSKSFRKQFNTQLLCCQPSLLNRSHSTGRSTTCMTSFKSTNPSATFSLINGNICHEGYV

BBN receptor [6] = target: T2, BBN receptor; assay: Inhibition of bombesin-stimulated amylase release from rat pancreatic acini; assay type: cell-based; conditions: half-maximal inhibition of bombesin-stimulated amylase release from acini; mean ± s.e.m.
Procedure: as §1
The incubation solution contained 1% albumin and the wash solution contained 0.2% albumin. The solution was equilibrated with 100% O2. Dispersed acini were suspended in 20 ml of solution. Samples of 1 ml were incubated in the presence of various concentrations of compounds in the presence of 1 nM bombesin. After the first incubation the samples were washed 4 times with wash solution at 4° C. The acini were then resuspended in fresh incubation buffer and incubated at 37° C. Amylase release was measured by the Phadebas reagent. Amylase secretion during a given incubation was expressed as the percentage of amylase present in the acini at the beginning of that incubation that was released into the extracellular medium.

BBN receptor [7] = target: T2, BBN receptor; assay: Inhibition of 125I bombesin binding to rat pancreatic acinar cells
Procedure: Inhibition of equilibrium binding of ^125 I labeled bombesin to acinar membranes by the compounds was determined. The Kd was determined by dividing IC50 (the concentration of synthetic compound required to inhibit 50% of the specific binding of labelled BBN) by the concentration of radiolabeled peptide.

bombesin receptor = conditions: inhibits growth with moderate potency; literature value; cited from earlier work
[8] = antagonist 1 μM alone, mean ± S.E. of 3

Row | Compound | reversal of colony inhibition by BBN (in words) (NCI-H345 [1]) | colony formation (in words) (NCI-H345 [1]) | colony formation (NCI-H345 [1]) [Colony per mm^2] | Growth (NCI-H345 [1]) | colony formation (NCI-H720; [8]) [Colony per mm^2] | colony formation (NCI-H720; antagonist 1 μM plus BBN 10 nM) [Colony per mm^2] | colony formation (in words) (NCI-H720) | Ca++ effect (BBN receptor [2]) | IC50 (BBN receptor [3]) [µM] | inhibition of BBN binding to SCLC membranes (in words) (BBN receptor [3]) | colony formation (NCI-H345 [4]) [Colony per mm^2] | EC50 (BBN receptor [5]) [µM] | IC50 (BBN receptor [6]) [µM] | IC50 (BBN receptor [3]; 50% inhibition of specific [125I]Tyr4-BBN binding, NCI-H345, read-out: IC50) [µM] | Kd (BBN receptor [7]; inhibition of 125I bombesin binding, IC50 divided by radioligand concentration) [µM] | binding to rat pancreatic acinar cells (in words) (BBN receptor [7]; inhibition of radiolabelled BBN binding) | Ki (bombesin receptor) [µM]
1 | CCOC(=O)[C@H](CC(C)C)NC(=O)[C@H](Cc1c[nH]cn1)NC(=O)[C@@H](C)NC(=O)[C@@H](NC(=O)[C@H](C)NC(=O)[C@H](Cc1c[nH]c2ccccc12)NC(=O)[C@H](CCC(N)=O)NC(=O)[C@H](CC(N)=O)NC(=O)CBr)C(C)C [PTC 816] (BrAc-NQWAV[dA]HL-OEt) | can be reversed | reduce the amount of colony formation | 52 ± 3 | R | 37 ± 6 | 66 ± 8 | reduce the amount of colony formation | A | 0.055 | potent inhibitors of BBN binding | 27 ± 4 | – | – | – | – | – | –
2 | CCOC(=O)[C@H](CC(C)C)NC(=O)[C@H](Cc1c[nH]cn1)NC(=O)[C@@H](C)NC(=O)[C@@H](NC(=O)[C@H](C)NC(=O)[C@H](Cc1c[nH]c2ccccc12)NC(=O)[C@H](Cc1c[nH]cn1)NC(C)=O)C(C)C [PTC 818] (Ac-HWAV[dA]HL-OEt) | can be reversed | reduce the amount of colony formation | 57 ± 6 | R | 36 ± 4 | 62 ± 7 | reduce the amount of colony formation | A | – | potent inhibitors of BBN binding | 20 ± 5 | > 3 | 0.0049 ± 0.0001 | 0.025 | 0.0081 ± 0.0018 | did bind to the cells | –
3 | [Psi^13,14, Leu^14 ]BBN | – | – | – | – | – | – | – | – | – | – | – | – | – | – | – | – | 0.03
